Experimental findings from patent publication US20240368078A1, “ARYL HETEROCYCLIC COMPOUNDS AS Kv1.3 POTASSIUM SHAKER CHANNEL BLOCKERS” (D.E. SHAW RESEARCH, LLC, priority 2021, published 2024) are described below.

One data set deals with Kv1.3 potassium channel (Homo sapiens (Human), UniProt P22001). The data set can be described thus: Kv1.3 potassium channel blocker activity, automated whole-cell patch clamp in CHO-K1 cells stably expressing Kv1.3. As to conditions: Patchliner patch clamp. Format: cell-based. The procedure: Example 21. Evaluation of Kv1.3 Potassium Channel Blocker Activities
Chain of Kv1.3 potassium channel (P22001 whole entry): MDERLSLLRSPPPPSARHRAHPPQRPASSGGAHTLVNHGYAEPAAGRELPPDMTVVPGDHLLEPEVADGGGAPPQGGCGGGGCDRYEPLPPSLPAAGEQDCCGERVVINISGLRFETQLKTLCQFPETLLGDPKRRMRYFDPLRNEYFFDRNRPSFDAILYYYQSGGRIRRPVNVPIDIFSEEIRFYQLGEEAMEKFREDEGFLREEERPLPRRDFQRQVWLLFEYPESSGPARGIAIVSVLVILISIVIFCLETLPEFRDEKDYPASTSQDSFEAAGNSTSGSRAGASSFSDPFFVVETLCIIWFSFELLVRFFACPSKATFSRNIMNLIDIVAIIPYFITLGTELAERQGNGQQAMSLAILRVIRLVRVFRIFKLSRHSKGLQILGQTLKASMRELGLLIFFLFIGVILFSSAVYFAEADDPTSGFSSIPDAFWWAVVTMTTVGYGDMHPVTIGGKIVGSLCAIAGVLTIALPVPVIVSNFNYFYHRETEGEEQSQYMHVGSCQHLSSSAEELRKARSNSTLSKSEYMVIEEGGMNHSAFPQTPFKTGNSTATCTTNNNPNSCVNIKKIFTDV
This assay is used to evaluate the disclosed compounds' activities as Kv1.3 potassium channel blockers.
CHO-K1 cells stably expressing Kv1.3 were grown in DMEM containing 10% heat-inactivated FBS, 1 mM sodium pyruvate, 2 mM L-glutamine, and G418 (500 μg/ml). Cells were grown in culture flasks at 37° C. in a 5% C02-humidified incubator.
The cells were bathed in an extracellular solution containing 140 mM NaCl, 4 mM KCl, 2 mM CaCl2), 1 mM MgCl2, 5 mM glucose, 10 mM HEPES; pH adjusted to 7.4 with NaOH; 295-305 mOsm. The internal solution contained 50 mM KCl, 10 mM NaCl, 60 mM KF, 20 mM EGTA, 10 mM HEPES; pH adjusted to 7.2 with KOH; 285 mOsm. All compounds were dissolved in DMSO at 30 mM. Compound stock solutions were freshly diluted with external solution to concentrations of 30 nM, 100 nM, 300 nM, 1 μM, 3 μM, 10 μM, 30 μM and 100 μM. The highest content of DMSO (0.3%) was present in 100 μM.
The currents were evoked by applying 100 ms depolarizing pulses from −90 mV (holding potential) to +40 mV were applied with 0.1 Hz frequency. Control (compound-free) and compound pulse trains for each compound concentration applied contained 20 pulses. 10-second breaks were used between pulse trains (see Table A below).
Whole-cell current recordings and compound application were enabled by means of an automated patch clamp platform Patchliner (Nanion Technologies GmbH). EPC 10 patch clamp amplifier (HEKA Elektronik Dr. Schulze GmbH) along with Patchmaster software (HEKA Elektronik Dr. Schulze GmbH) was used for data acquisition. Data were sampled at 10 kHz without filtering. Passive leak currents were subtracted online using a P/4 procedure (HEKA Elektronik Dr. Schulze GmbH). Increasing compound concentrations were applied consecutively to the same cell without washouts in between. Total compound incubation time before the next pulse train was not longer than 10 seconds. Peak current inhibition was observed during compound equilibration.
(§1) AUC and peak values were obtained with Patchmaster (HEKA Elektronik Dr. Schulze GmbH). To determine IC50, the last single pulse in the pulse train corresponding to a given compound concentration was used. Obtained AUC and peak values in the presence of compound were normalized to control values in the absence of compound. Using Origin (OridinLab), IC50 was derived from data fit to Hill equation: Icompound/Icontrol=(100-A)/(1+([compound]/IC50)nH)+A, where IC50 value is the concentration at which current inhibition is half-maximal, [compound] is the applied compound concentration, A is the fraction of current that is not blocked and nH is the Hill coefficient.
(In general: The patch-clamp technique gives a direct electrical read-out from membranes.)

A further data set deals with hERG channel (Homo sapiens (Human), UniProt Q12809). The experiment in a line: hERG electrophysiology, automated whole-cell patch clamp in CHO-K1 cells stably expressing hERG. As to conditions: Patchliner patch clamp. Format: cell-based. The procedure:
Example 22. Evaluation of hERG Activities
This assay is used to evaluate the disclosed compounds's inhibition activities against the hERG channel.
This assay is used to evaluate the disclosed compounds' inhibition activities against the hERG channel.
CHO-K1 cells stably expressing hERG were grown in Ham's F-12 Medium with glutamine containing 10% heat-inactivated FBS, 1% penicillin/streptomycin, hygromycin (100 μg/ml) and G418 (100 μg/ml). Cells were grown in culture flasks at 37° C. in a 5% CO2— humidified incubator.
The cells were bathed in an extracellular solution containing 140 mM NaCl, 4 mM KCl, 2 mM CaCl2), 1 mM MgCl2, 5 mM Glucose, 10 mM HEPES; pH adjusted to 7.4 with NaOH; 295-305 mOsm. The internal solution contained 50 mM KCl, 10 mM NaCl, 60 mM KF, 20 mM EGTA, 10 mM HEPES; pH adjusted to 7.2 with KOH; 285 mOsm. All compounds were dissolved in DMSO at 30 mM. Compound stock solutions were freshly diluted with external solution to concentrations of 30 nM, 100 nM, 300 nM, 1 μM, 3 μM, 10 μM, 30 μM and 100 μM. The highest content of DMSO (0.3%) was present in 100 μM.
The voltage protocol (see Table B) was designed to simulate voltage changes during a cardiac action potential with a 300 ms depolarization to +20 mV (analogous to the plateau phase of the cardiac action potential), a repolarization for 300 ms to −50 mV (inducing a tail current) and a final step to the holding potential of −80 mV. The pulse frequency was 0.3 Hz. Control (compound-free) and compound pulse trains for each compound concentration applied contained 70 pulses.
Whole-cell current recordings and compound application were enabled by means of an automated patch clamp platform Patchliner (Nanion). EPC 10 patch clamp amplifier (HEKA) along with Patchmaster software (HEKA Elektronik Dr. Schulze GmbH) was used for data acquisition. Data were sampled at 10 kHz without filtering. Increasing compound concentrations were applied consecutively to the same cell without washouts in between.
as §1, with “PEAK” for “peak”, “IC50” for “IC50,”, “Icompound/Icontrol=(100−A)/(1+([compound]/IC50)nH)+A,” for “Icompound/Icontrol=(100-A)/(1+([compound]/IC50)nH)+A,”, “IC50” for “IC50 value”
(In general: hERG is a cardiac potassium channel; its block is linked to QT prolongation.)

Chain of hERG channel (Q12809 whole entry): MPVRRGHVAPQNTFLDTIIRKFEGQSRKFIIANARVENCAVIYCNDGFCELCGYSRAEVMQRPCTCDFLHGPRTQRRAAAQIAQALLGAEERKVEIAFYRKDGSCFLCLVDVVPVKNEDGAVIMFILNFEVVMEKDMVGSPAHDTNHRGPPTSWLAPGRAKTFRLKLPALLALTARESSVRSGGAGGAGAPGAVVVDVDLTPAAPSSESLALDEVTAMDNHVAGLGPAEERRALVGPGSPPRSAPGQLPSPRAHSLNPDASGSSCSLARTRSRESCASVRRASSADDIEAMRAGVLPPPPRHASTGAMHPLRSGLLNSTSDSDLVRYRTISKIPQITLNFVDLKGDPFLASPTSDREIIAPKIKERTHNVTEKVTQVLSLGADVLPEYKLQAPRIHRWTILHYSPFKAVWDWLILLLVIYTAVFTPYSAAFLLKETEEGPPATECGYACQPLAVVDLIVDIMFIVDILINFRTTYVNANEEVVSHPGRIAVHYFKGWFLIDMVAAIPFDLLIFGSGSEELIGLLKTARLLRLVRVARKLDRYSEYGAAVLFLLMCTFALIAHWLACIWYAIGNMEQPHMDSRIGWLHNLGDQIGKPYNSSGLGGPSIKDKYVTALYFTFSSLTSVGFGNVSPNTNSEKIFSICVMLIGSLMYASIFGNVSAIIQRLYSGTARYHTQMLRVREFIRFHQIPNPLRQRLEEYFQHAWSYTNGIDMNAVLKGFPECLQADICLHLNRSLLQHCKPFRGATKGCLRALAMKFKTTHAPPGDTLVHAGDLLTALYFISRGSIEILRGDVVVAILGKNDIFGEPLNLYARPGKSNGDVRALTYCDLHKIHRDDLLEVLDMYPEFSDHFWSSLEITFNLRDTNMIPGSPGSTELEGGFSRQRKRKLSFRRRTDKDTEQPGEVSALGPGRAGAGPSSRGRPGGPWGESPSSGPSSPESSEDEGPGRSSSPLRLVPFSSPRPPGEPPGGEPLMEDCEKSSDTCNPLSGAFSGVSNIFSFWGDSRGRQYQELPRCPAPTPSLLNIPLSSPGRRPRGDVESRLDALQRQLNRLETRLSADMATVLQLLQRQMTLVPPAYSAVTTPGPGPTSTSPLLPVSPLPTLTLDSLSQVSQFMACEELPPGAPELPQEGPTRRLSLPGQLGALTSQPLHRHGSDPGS

Regarding `O=C(C[C@H]1CN[C@@H](c2c(O)ccc(Cl)c2Cl)C1)N1CC[C@H]1CO` [Compound 68, 2-((3S,5R)-5-(2,3-dichloro-6-hydroxyphenyl)pyrrolidin-3-yl)-1-((S)-2-(hydroxymethyl)azetidin-1-yl)ethan-1-one], the figures for the IC50 against Kv1.3 potassium channel and on hERG channel were < 1000 nM and > 100 µM, respectively.
On the same counts, the results for `CC(C)(CO)NC(=O)C[C@H]1CN[C@@H](c2c(O)ccc(Cl)c2Cl)C1` [Compound 71, 2-((3S,5R)-5-(2,3-dichloro-6-hydroxyphenyl)pyrrolidin-3-yl)-N-(1-hydroxy-2-methylpropan-2-yl)acetamide] are < 1000 nM and > 100 µM.
